{"source": "patent US9205132B2", "about": "“Method of lowering mortality” (CORTHERA, INC., priority 2008, dated 2015)", "key": {"[1]": {"tested_on": "patients with acute heart failure (AHF)", "assay": "Safety endpoints (adverse events, blood pressure, renal impairment, clinical laboratory), Pre-RELAX-AHF trial", "format": "in vivo, human", "details": "for Total number of SAEs: to Day 30", "experimental": "(§1) Study Procedures. The study was approved by the relevant ethics committees, institutional review hoards and regulatory authorities, and conducted under the International Conference on Harmonization Good Clinical Practice guidelines. All patients provided informed written consent prior to participation. […] The placebo used for the study was the same solution as the diluent used to prepare the 100 μg/kg/day dose. The randomization ratio was 3:2:2:2:2, respectively, Relaxin (Corthera, San Mateo, Calif.) was manufactured using recombinant techniques and was identical to the naturally-occurring peptide hormone. By protocol, the study drug infusion was to be terminated if the patient's SBP was reduced to <100 mmHg or by >40 mmHg compared to baseline in two successive measurements, 15 minutes apart. Investigators were not prohibited from utilizing any standard medication, thought necessary to treat patients enrolled in the study, including additional vasodilators, following a 4-hour washout period during which time IV vasodilators, IV pure inotropes and meals were withheld, hemodynamic, renal, and clinical responses to 48 hours of study drug infusion were assessed.\n(§2) Study Endpoints. […] 4.) Length of initial hospital stay."}, "[2]": {"tested_on": "patients with acute heart failure (AHF)", "assay": "In-hospital short-term outcomes (worsening heart failure, length of stay, signs of heart failure, diuretic and nitroglycerin use, body weight), Pre-RELAX-AHF trial", "format": "in vivo, human", "details": "for Length of Hospital Stay: mean ± SD", "experimental": "as §1, §2"}, "[3]": {"tested_on": "patients with acute heart failure (AHF)", "assay": "Post-discharge outcomes to Day 60 and Day 180 (death, rehospitalization), Pre-RELAX-AHF trial", "details": "for Days alive out of hospital: Day 60, mean ± SD", "protocol": "Patient-reported dyspnea was assessed using both a standard 7-point Likert Scale and a standard 100-mm Visual Analog Scale (VAS). Assessments were performed at baseline (VaS only), 6 h, 12 h, 24 h, 48 h after initiation of drug therapy and at Days 3, 4, 5 and 14. Questionnaires were administered in the local language, and investigators received training in the standardized administration of these evaluations. Daily, serial physician-reported assessments of heart failure signs and symptoms were, conducted including jugular venous distension, rales, edema, orthopnea, and dyspnea on exertion, in-hospital worsening heart failure was defined as a physician-determined assessment based on worsening symptoms or signs of heart failure and the need for the addition or institution of IV medications or mechanical support to treat AHF. Vital status and rehospitalization information was collected by telephone at Day 30, Day 60 and (vital status only at.) Day 180. When the last enrolled patient reached Day 60, telephone contact was made with all patients who were between Day 60 and Day 180 of follow-up to complete the study.\n1.) Relief of dyspnea, assessed with two complementary Instruments; (a) Change in dyspnea by Likert scale, and (b) Change from baseline by Visual Analog Scale. 2.) In-hospital worsening heart failure (WMF) to Day 5. […] 4.) Length of initial hospital stay. 5.) Days alive and out-of-hospital to Day 60. 6.) Death due to cardiovascular causes or rehospitalization for heart failure or renal failure to Day 60. 7.) Mortality due to cardiovascular causes to Day 180. In addition, serial assessments of safety were performed including vital-signs, physical examinations, adverse events and clinical laboratory evaluations.\nData are presented as means with standard deviations unless otherwise specified. Missing data were generally imputed by a last-observation-carried-forward approach. The worst observed dyspnea Likert or VAS score was carried forward from the time of death or worsening heart failure. The area under the curve representing the change in VAS score from baseline through Day 5 was computed by trapezoidal rule. For patients who died during the initial hospitalization, length of stay was imputed as the maximum observed plus 1 day (33 days). […] To control for regional variations in this relatively small study, region as a covariate or stratifying variable was prospectively pre-specified in the analyses of treatment effect. Rehospitalization and mortality rates through Day 180 were estimated using Kaplan-Meier (product-limit) methods, and groups compared using the Wald test of the treatment effect from Cox regression models, where time-to-event was censored at last patient contact for patients without the event of interest."}, "[4]": {"details": "relaxin for 48 hours, AHF patients"}}, "note": "Marks after values point to notes of the source that are not given here.", "data": [{"substance": "Relaxin", "values": [{"measurement": "Renal impairment: Patients with ≧0.3 mg/dL increase in creatinine at Day 5", "setting": "[1]; 250 mcg/kg/d IV 48 h", "result": "10 (22.7%) n (%)"}, {"measurement": "Renal impairment: Patients with ≧0.3 mg/dL increase in creatinine at Day 5 and Day 14", "setting": "[1]; 250 mcg/kg/d IV 48 h", "result": "7 (15.2%) + n (%)"}, {"measurement": "Renal impairment: Patients with ≧25% increase in creatinine at Day 5", "setting": "[1]; 250 mcg/kg/d IV 48 h", "result": "12 (25.5%) n (%)"}, {"measurement": "SAE to Day 30: Acute respiratory failure, n (%)", "setting": "[1]; 250 mcg/kg/d IV 48 h", "result": "0 n (%)"}, {"measurement": "SAE to Day 30: Bronchitis, n (%)", "setting": "[1]; 250 mcg/kg/d IV 48 h", "result": "1 (2.0%) n (%)"}, {"measurement": "SAE to Day 30: Cardiac failure, n (%)", "setting": "[1]; 250 mcg/kg/d IV 48 h", "result": "2 (6.1%) n (%)"}, {"measurement": "SAE to Day 30: Cerebrovascular accident, n (%)", "setting": "[1]; 250 mcg/kg/d IV 48 h", "result": "0 n (%)"}, {"measurement": "SAE to Day 30: Hypotension, n (%)", "setting": "[1]; 250 mcg/kg/d IV 48 h", "result": "2 (4.1%) n (%)"}, {"measurement": "SAE to Day 30: Noncardiac chest pain, n (%)", "setting": "[1]; 250 mcg/kg/d IV 48 h", "result": "1 (2.0%) n (%)"}, {"measurement": "SAE to Day 30: Pneumonia, n (%)", "setting": "[1]; 250 mcg/kg/d IV 48 h", "result": "0 n (%)"}, {"measurement": "SAE to Day 30: Renal failure, n (%)", "setting": "[1]; 250 mcg/kg/d IV 48 h", "result": "0 n (%)"}, {"measurement": "SAE to Day 30: Urinary retention, n (%)", "setting": "[1]; 250 mcg/kg/d IV 48 h", "result": "0 n (%)"}, {"measurement": "SAE to Day 30: Urinary tract infection, n (%)", "setting": "[1]; 250 mcg/kg/d IV 48 h", "result": "1 (2.0%) n (%)"}, {"measurement": "SAE to Day 30: Ventricular fibrillation, n (%)", "setting": "[1]; 250 mcg/kg/d IV 48 h", "result": "0 n (%)"}, {"measurement": "mean change in creatinine from baseline at Day 14", "setting": "[1]; 250 mcg/kg/d IV 48 h", "result": "0.10 ± 0.39", "unit": "mg/dL"}, {"measurement": "proportion of patients at Day 14 with an increase in creatinine of 0.3 mg/dL or more", "setting": "[1]; 250 mcg/kg/d IV 48 h", "result": 37.2, "unit": "%"}, {"measurement": "change from baseline in mean hematocrit at 48 hours", "setting": "[1]; 250 mcg/kg/d IV 48 h, described as transient decrease", "result": 0.64, "unit": "%"}, {"measurement": "renal toxicity", "setting": "[1]; AHF and/or acute vascular failure patients", "result": "low to no renal toxicity"}, {"measurement": "safety and tolerability", "setting": "[1]; AHF patients, all doses", "result": "no safety or tolerability issues"}, {"measurement": "hypotension in patients with baseline SBP below the median", "setting": "[1]; FIGS. 22A and 22B", "result": "does not cause deleterious hypotension"}, {"measurement": "trough SBP", "setting": "[1]; all cases with blood pressure reduction", "result": "≥ 80", "unit": "mmHg"}, {"measurement": "mean change in pulse from baseline through day 14", "setting": "[1]; all relaxin groups vs placebo, FIG. 20", "result": "not chronotropic"}, {"measurement": "average decrease in systolic blood pressure over all time points during infusion vs placebo", "setting": "[1]; all relaxin groups, FIG. 21", "result": "did not differ"}, {"measurement": "patients who received intravenous fluids for hypotension", "setting": "[1]; four relaxin-treated groups together (5 patients)", "result": 3.0, "unit": "%"}, {"measurement": "patients with SBP reductions in whom SBP stabilized or rose with no therapy after discontinuation of study drug", "setting": "[1]; relaxin-treated patients, all doses", "result": "18 of 23"}, {"measurement": "Total number of SAEs", "setting": "[1]; 10 mcg/kg/d IV 48 h", "result": 8}, {"measurement": "Total number of SAEs", "setting": "[1]; 30 mcg/kg/d IV 48 h", "result": 12}, {"measurement": "Total number of SAEs", "setting": "[1]; 100 mcg/kg/d IV 48 h", "result": 3}, {"measurement": "Total number of SAEs", "setting": "[1]; 250 mcg/kg/d IV 48 h", "result": 11}, {"measurement": "% of subjects at Day 5 with: JVP <6 cm", "setting": "[2]; 10 mcg/kg/d IV 48 h", "result": 72.5, "unit": "%"}, {"measurement": "% of subjects at Day 5 with: No edema", "setting": "[2]; 10 mcg/kg/d IV 48 h", "result": 55.0, "unit": "%"}, {"measurement": "% of subjects at Day 5 with: No rales", "setting": "[2]; 10 mcg/kg/d IV 48 h", "result": 65.0, "unit": "%"}, {"measurement": "Worsening HF through Day 5 (%)", "setting": "[2]; 10 mcg/kg/d IV 48 h", "result": 20.0, "unit": "%"}, {"measurement": "patients receiving intravenous nitroglycerin during the first 24 hours", "setting": "[2]; 10 mcg/kg/d IV 48 h", "result": 10.0, "unit": "%"}, {"measurement": "Length of Hospital Stay", "setting": "[2]; 10 mcg/kg/d IV 48 h", "result": "10.9 ± 8.5", "unit": "days"}, {"measurement": "Median change in body weight from baseline to Day 14 [kg; median (Q1; Q3)]", "setting": "[2]; 10 mcg/kg/d IV 48 h", "result": -2.0, "unit": "kg"}, {"measurement": "Median total IV diuretic dose from randomization to Day 5 [mg; median (Q1-Q3)]", "setting": "[2]; 10 mcg/kg/d IV 48 h", "result": 100, "unit": "mg"}, {"measurement": "% of subjects at Day 5 with: JVP <6 cm", "setting": "[2]; 30 mcg/kg/d IV 48 h", "result": 78.6, "unit": "%"}, {"measurement": "% of subjects at Day 5 with: No edema", "setting": "[2]; 30 mcg/kg/d IV 48 h", "result": "64.3 † %"}, {"measurement": "% of subjects at Day 5 with: No rales", "setting": "[2]; 30 mcg/kg/d IV 48 h", "result": 76.2, "unit": "%"}, {"measurement": "Worsening HF through Day 5 (%)", "setting": "[2]; 30 mcg/kg/d IV 48 h", "result": 11.9, "unit": "%"}, {"measurement": "patients receiving intravenous nitroglycerin during the first 24 hours", "setting": "[2]; 30 mcg/kg/d IV 48 h", "result": 9.5, "unit": "%"}, {"measurement": "Length of Hospital Stay", "setting": "[2]; 30 mcg/kg/d IV 48 h", "result": "10.2 ± 6.1", "unit": "days"}, {"measurement": "Median change in body weight from baseline to Day 14 [kg; median (Q1; Q3)]", "setting": "[2]; 30 mcg/kg/d IV 48 h", "result": -3.0, "unit": "kg"}, {"measurement": "Median total IV diuretic dose from randomization to Day 5 [mg; median (Q1-Q3)]", "setting": "[2]; 30 mcg/kg/d IV 48 h", "result": 100, "unit": "mg"}, {"measurement": "% of subjects at Day 5 with: JVP <6 cm", "setting": "[2]; 100 mcg/kg/d IV 48 h", "result": 73.0, "unit": "%"}, {"measurement": "% of subjects at Day 5 with: No edema", "setting": "[2]; 100 mcg/kg/d IV 48 h", "result": "51.4 * %"}, {"measurement": "% of subjects at Day 5 with: No rales", "setting": "[2]; 100 mcg/kg/d IV 48 h", "result": 70.3, "unit": "%"}, {"measurement": "Worsening HF through Day 5 (%)", "setting": "[2]; 100 mcg/kg/d IV 48 h", "result": 13.5, "unit": "%"}, {"measurement": "patients receiving intravenous nitroglycerin during the first 24 hours", "setting": "[2]; 100 mcg/kg/d IV 48 h", "result": 13.5}, {"measurement": "Length of Hospital Stay", "setting": "[2]; 100 mcg/kg/d IV 48 h", "result": "11.1 ± 6.6", "unit": "days"}, {"measurement": "Median change in body weight from baseline to Day 14 [kg; median (Q1; Q3)]", "setting": "[2]; 100 mcg/kg/d IV 48 h", "result": -2.5, "unit": "kg"}, {"measurement": "Median total IV diuretic dose from randomization to Day 5 [mg; median (Q1-Q3)]", "setting": "[2]; 100 mcg/kg/d IV 48 h", "result": "90 + mg"}, {"measurement": "% of subjects at Day 5 with: JVP <6 cm", "setting": "[2]; 250 mcg/kg/d IV 48 h", "result": "76.6 + %"}, {"measurement": "% of subjects at Day 5 with: No edema", "setting": "[2]; 250 mcg/kg/d IV 48 h", "result": "61.2 † %"}, {"measurement": "% of subjects at Day 5 with: No rales", "setting": "[2]; 250 mcg/kg/d IV 48 h", "result": 71.4, "unit": "%"}, {"measurement": "Worsening HF through Day 5 (%)", "setting": "[2]; 250 mcg/kg/d IV 48 h", "result": 10.2, "unit": "%"}, {"measurement": "patients receiving intravenous nitroglycerin during the first 24 hours", "setting": "[2]; 250 mcg/kg/d IV 48 h", "result": 4.1, "unit": "%"}, {"measurement": "Length of Hospital Stay", "setting": "[2]; 250 mcg/kg/d IV 48 h", "result": "10.6 ± 6.6", "unit": "days"}, {"measurement": "Median change in body weight from baseline to Day 14 [kg; median (Q1; Q3)]", "setting": "[2]; 250 mcg/kg/d IV 48 h", "result": -2.0, "unit": "kg"}, {"measurement": "Median total IV diuretic dose from randomization to Day 5 [mg; median (Q1-Q3)]", "setting": "[2]; 250 mcg/kg/d IV 48 h", "result": 140, "unit": "mg"}, {"measurement": "period over which the improvements lasted", "setting": "[2]; relaxin administered for as little as 48 hours", "result": 14, "unit": "days"}, {"measurement": "reduction in excessive body weight due to fluid retention, average loss", "setting": "[2]; [4]", "result": "about 1 kg"}, {"measurement": "shorter hospital stays", "setting": "[2]; [4]", "result": "≤ 2.5", "unit": "days"}, {"measurement": "mean length of stay for the index hospitalization, shorter than for placebo", "setting": "[2]; relaxin groups 10-250 mcg/kg/d vs placebo", "result": "0.9 to 1.8", "unit": "days"}, {"measurement": "estimated hazard reduction, death due to cardiovascular causes or rehospitalization due to heart failure or renal failure at day 60", "setting": "[3]; 30 mcg/kg/d IV 48 h, vs placebo", "result": 87, "unit": "%"}, {"measurement": "Days alive out of hospital", "setting": "[3]; 10 mcg/kg/d IV 48 h", "result": "47.0 ± 13.0", "unit": "days"}, {"measurement": "Days alive out of hospital", "setting": "[3]; 30 mcg/kg/d IV 48 h", "result": "47.9 ± 10.1", "unit": "days"}, {"measurement": "Days alive out of hospital", "setting": "[3]; 100 mcg/kg/d IV 48 h", "result": "48 ± 10.1", "unit": "days"}, {"measurement": "Days alive out of hospital", "setting": "[3]; 250 mcg/kg/d IV 48 h", "result": "47.6 ± 12.0", "unit": "days"}, {"measurement": "All-cause death (KM %)", "setting": "[3]; Day 180, 10 mcg/kg/d IV 48 h", "result": 5.0, "unit": "%"}, {"measurement": "mean number of days alive and out-of-hospital at Day 60, greater than placebo", "setting": "[3]; relaxin-treated patients vs placebo", "result": "approximately 4 days"}]}]}
